Measurements from US9890185B2, “Urea derivatives useful as kinase inhibitors” (Respivert Limited, priority 2013, dated 2018).
pIC50: −log10 of the molar value.

What was measured:
c-Src = c-Src (Homo sapiens (Human), UniProt P12931); test: c-Src enzyme inhibition (FRET, Z-LYTE); type: biochemical
In short: (§1)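 Z-LYTE FRET; enzyme + cpd 2 hr RT, then peptide + ATP 1 hr (ATP added soln: c-Src 800 μM, Syk 60 μM); protease 1 hr. Donor/acceptor emission ratio, % inhib vs uninhibited control, IC50 from curve.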

Syk = Syk (Homo sapiens (Human), UniProt P43405); test: Syk enzyme inhibition (FRET, Z-LYTE); type: biochemical
In short: as §1

GSK 3α = GSK 3α (Homo sapiens (Human), UniProt P49840); test: GSK 3α enzyme inhibition (FRET, Z-LYTE, Method 2); type: biochemical; conditions: read-out: IC50 Values for Enzyme Inhibition, GSK3α
Chain of GSK 3α (P49840 whole entry): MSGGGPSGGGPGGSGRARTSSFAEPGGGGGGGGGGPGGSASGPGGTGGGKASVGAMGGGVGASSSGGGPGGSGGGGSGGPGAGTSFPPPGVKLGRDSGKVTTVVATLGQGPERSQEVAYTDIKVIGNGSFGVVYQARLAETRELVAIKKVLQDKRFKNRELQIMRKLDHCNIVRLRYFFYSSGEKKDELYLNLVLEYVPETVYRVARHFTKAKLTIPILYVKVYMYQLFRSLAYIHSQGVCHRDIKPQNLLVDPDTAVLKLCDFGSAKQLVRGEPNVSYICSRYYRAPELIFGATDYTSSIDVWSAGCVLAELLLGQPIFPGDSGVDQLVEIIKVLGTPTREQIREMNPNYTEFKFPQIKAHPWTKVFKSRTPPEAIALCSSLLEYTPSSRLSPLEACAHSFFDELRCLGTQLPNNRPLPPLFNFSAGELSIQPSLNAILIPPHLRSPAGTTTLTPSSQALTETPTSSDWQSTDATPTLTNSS
In short: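 Human GSK3α (500 ng/mL) preincubated with compound (4, 0.4, 0.04 or 0.004 μg/mL) at RT for 2 h (Method 1) or 105 min (Method 2). Then FRET peptide (8 μM) and ATP (40 μM) added for 1 h, followed by protease development for 1 h. IC50 from the coumarin/fluorescein emission ratio relative to uninhibited control.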

PBMCs [1] = test: LPS-induced IL-8 release in PBMC cells (assay b); type: cell-based, human; conditions: Homo sapiens, PBMC; LPS-stimulated PBMCs; read-out: IC50 Values for Inhibition of Cytokine Release, PBMCs IL-8
In short: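 Cytokines (TNFα, IL-8) in supernatants were quantified by sandwich ELISA after a 24 h challenge with 1 ng/mL E. coli LPS at 37° C, 5% CO2. Healthy-donor PBMCs had been exposed to compound for 2 h beforehand. IC50 values were fitted from the concentration-response curves.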

PBMCs [2] = test: IL-2 release in CD3/CD28 stimulated PBMC cells (assay c); type: cell-based; conditions: Homo sapiens, read-out: IC50 Values for Inhibition of Cytokine Release, PBMCs IL-2
Experimental: (§2) PBMCs from healthy subjects are separated from whole blood using a density gradient (Lymphoprep, Axis-Shield Healthcare). Cells are added to a 96 well plate pre-coated with a mixture of CD3/CD28 monoclonal antibodies (0.3 μg/mL eBioscience and 3 μg/mL BD Pharmingen respectively). Compound at the desired concentration is then added to the wells and the plate left for 3 days under normal tissue culture conditions. Supernatants are harvested and IL-2 and IFN gamma release determined by Sandwich ELISA (Duo-set, R&D System). The IC50 is determined from the dose response curve.

PBMCs [3] = test: IFN gamma release in CD3/CD28 stimulated PBMC cells (assay c); type: cell-based; conditions: Homo sapiens, read-out: IC50 Values for Inhibition of Cytokine Release, PBMCs IFNγ
Experimental: as §2

PBMCs [4] = test: Cell mitosis assay in PBMCs (assay g); type: cell-based; conditions: Homo sapiens, PBMC, test compound 5 μg/mL
Experimental: Peripheral blood mononucleocytes (PBMCs) from healthy subjects are separated from whole blood (Quintiles, London, UK) using a density gradient (Histopaque®-1077, Sigma-Aldrich, Poole, UK). The PBMCs (3 million cells per sample) are subsequently treated with 2% PHA (phytohaemagglutinin, Sigma-Aldrich, Poole, UK) for 48 hr, followed by a 20 hr exposure to varying concentrations of test compounds. At 2 hr before collection, PBMCs are treated with demecolcine (0.1 μg/mL; Invitrogen, Paisley, UK) to arrest cells in metaphase. To observe mitotic cells, PBMCs are permeabilised and fixed by adding Intraprep (50 μL; Beckman Coulter, France), and stained with anti-phospho-histone 3 (0.26 ng/L; #9701; Cell Signalling, Danvers, Mass.) and propidium iodide (1 mg/mL; Sigma-Aldrich, Poole, UK) as previously described (Muehlbauer P. A. and Schuler M. J., Mutation Research, 2003, 537:117-130). Fluorescence is observed using an ATTUNE flow cytometer (Invitrogen, Paisley, UK), gating for lymphocytes. The percentage inhibition of mitosis is calculated for each treatment relative to vehicle (0.5% DMSO) treatment.

d-U937 cells = test: Accumulation of β catenin in d-U937 cells (assay m); type: cell-based, human; conditions: percentage relative to Reference Compound at 1 μg/mL
In short: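 Read-out: colourimetric cell-based immunoassay for endogenous β-catenin (OD450 minus 655 reference), normalised to crystal violet absorbance at 595 nm. Test compound or vehicle was applied for 18 hr to U937 monocytes first differentiated with PMA (100 ng/mL) for 48–72 hr.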

[5] = molecular target: p38 MAPKα isoform (MAPK14) (Homo sapiens (Human), UniProt Q16539); test: p38 MAPKα enzyme inhibition (FRET, Z-LYTE, Method 2); type: biochemical
Chain of p38 MAPKα isoform (MAPK14) (Q16539 whole entry, canonical isoform): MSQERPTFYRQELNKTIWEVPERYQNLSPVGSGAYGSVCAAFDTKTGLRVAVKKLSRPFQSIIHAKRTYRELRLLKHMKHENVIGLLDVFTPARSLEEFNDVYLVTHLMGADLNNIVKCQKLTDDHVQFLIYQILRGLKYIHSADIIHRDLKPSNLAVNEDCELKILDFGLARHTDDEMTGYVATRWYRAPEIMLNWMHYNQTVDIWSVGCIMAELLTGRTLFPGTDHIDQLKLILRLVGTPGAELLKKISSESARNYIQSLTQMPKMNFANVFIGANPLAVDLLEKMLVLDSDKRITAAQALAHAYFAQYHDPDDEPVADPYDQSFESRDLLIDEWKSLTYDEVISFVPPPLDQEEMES
In short: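 Z-LYTE FRET: p38 MAPKα (80 ng/mL for Method 1, 200 ng/mL for Method 2, pre-dilution) preincubated 2 hr RT with compound (4–0.004 μg/mL solutions), activity read via MAPKAP-K2 phosphorylation after 1 hr RT and 1 hr protease development. Coumarin/fluorescein ratio gives phosphorylation; % inhibition versus uninhibited control, IC50 from concentration-response curve.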

Chain of c-Src (P12931 whole entry, looked up): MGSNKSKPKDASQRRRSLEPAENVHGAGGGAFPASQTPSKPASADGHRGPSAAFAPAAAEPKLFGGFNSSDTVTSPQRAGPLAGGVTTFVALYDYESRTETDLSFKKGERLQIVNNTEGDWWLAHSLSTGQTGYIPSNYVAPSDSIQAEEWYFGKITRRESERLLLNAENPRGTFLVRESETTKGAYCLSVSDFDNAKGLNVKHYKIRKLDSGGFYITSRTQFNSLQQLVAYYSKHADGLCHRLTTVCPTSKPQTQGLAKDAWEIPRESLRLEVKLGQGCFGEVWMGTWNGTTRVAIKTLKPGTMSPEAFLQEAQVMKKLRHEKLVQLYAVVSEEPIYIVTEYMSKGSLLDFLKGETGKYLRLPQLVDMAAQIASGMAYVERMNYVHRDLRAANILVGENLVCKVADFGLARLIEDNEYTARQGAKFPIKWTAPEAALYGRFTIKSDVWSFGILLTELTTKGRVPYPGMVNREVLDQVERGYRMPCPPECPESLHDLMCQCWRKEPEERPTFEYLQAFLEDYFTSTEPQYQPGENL

Compound | pIC50 (c-Src) | pIC50 (Syk) | pIC50 (GSK 3α) | pIC50 (PBMCs [1]) | pIC50 (PBMCs [2]) | pIC50 (PBMCs [3]) | inhibition at 5 µg/mL (PBMCs [4]) [%] | % β-catenin induction (d-U937 cells; test compound 1 μg/mL) [%] | % β-catenin induction (d-U937 cells; test compound 5 μg/mL) [%] | % β-catenin induction (d-U937 cells; test compound 10 μg/mL) [%] | pIC50 [5]
COc1c(NC(=O)Nc2ccc(Oc3ccnc(Nc4cnccn4)c3)c3ccccc23)cc(C(C)(C)C)cc1P(C)(C)=O [15(aa), 1-(5-(tert-butyl)-3-(dimethylphosphoryl)-2-methoxyphenyl)-3-(4-((2-(pyrazin-2-ylamino)pyridin-4-yl)oxy)naphthalen-1-yl)urea] | 7.34 | 6.94 | 6.72 | 9.10 | 7.23 | 7.83 | 98.1 | 50.5 | 58.5 | 49.5 | 
COCCOCCOCCNC(=O)c1cc(Nc2cc(Oc3ccc(NC(=O)Nc4cc(C(C)(C)C)cc(S(C)(=O)=O)c4OC)c4ccccc34)ccn2)cc(OC)c1 [38(ab), 3-((4-((4-(3-(5-(tert-Butyl)-2-methoxy-3-(methylsulfonyl)phenyl)ureido)naphthalen-1-yl)oxy)pyridin-2-yl)amino)-5-methoxy-N-(2-(2-(2-methoxyethoxy)ethoxy)ethyl)benzamide] | 7.21 | < 5.92 | 5.32 | 8.85 | 6.50 | 7.96 | 30.7 |  |  |  | 7.30
COc1cccc(Nc2cc(Oc3ccc(NC(=O)Nc4cc(C(C)(C)C)cc(CC(N)=O)c4OC)c(Cl)c3Cl)ccn2)c1 [38(af), 2-(5-(tert-Butyl)-3-(3-(2,3-dichloro-4-((2-((3-methoxyphenyl)amino)pyridin-4-yl)oxy)phenyl)ureido)-2-methoxyphenyl)acetamide] | 7.36 | 6.60 | 6.00 | 8.59 | 7.20 | 8.35 | 89.3 |  |  |  | 
COc1cc(Nc2cc(Oc3ccc(NC(=O)Nc4cc(C(C)(C)C)cc(CC(N)=O)c4OC)c4ccccc34)ccn2)cc(S(N)(=O)=O)c1 [38(ai), 2-(5-(tert-Butyl)-2-methoxy-3-(3-(4-((2-((3-methoxy-5-sulfamoylphenyl)amino)pyridin-4-yl)oxy)naphthalen-1-yl)ureido)phenyl)acetamide] |  |  | 6.05 | 8.80 | 7.04 | 7.95 | 67.6 |  |  |  | 
COc1cc(Nc2cc(Oc3ccc(NC(=O)Nc4cc(C(C)(C)C)cc(P(C)(C)=O)c4OC)c4ccccc34)ccn2)ccc1C(=O)NCCN1CCOCC1 [38(ao), 4-((4-((4-(3-(5-(tert-Butyl)-3-(dimethylphosphoryl)-2-methoxyphenyl)ureido)naphthalen-1-yl)oxy)pyridin-2-yl)amino)-2-methoxy-N-(2-morpholinoethyl)benzamide] |  |  | 5.49 | 8.57 | 6.66 | 7.80 | 78 |  |  |  | 
COc1c(NC(=O)Nc2ccc(Oc3ccnc(NCc4ccccc4)n3)c3ccccc23)cc(C(C)(C)C)cc1P(C)(C)=O [38(g), 1-(4-((2-(Benzylamino)pyrimidin-4-yl)oxy)naphthalen-1-yl)-3-(5-(tert-butyl)-3-(dimethylphosphoryl)-2-methoxyphenyl)urea] |  |  | 5.62 | 8.48 | 5.79 | 7.65 | 28.8 | 4.5 | 24.5 | 38.0 | 8.05
COc1cc(Nc2cc(Oc3ccc(NC(=O)Nc4cc(C(C)(C)C)cc(CNC(C)=O)c4OC)c4ccccc34)ccn2)cc(C(=O)NCCN2CCOCC2)c1 [38(t), 3-((4-((4-(3-(3-(Acetamidomethyl)-5-(tert-butyl)-2-methoxyphenyl)ureido)naphthalen-1-yl)oxy)pyridin-2-yl)amino)-5-methoxy-N-(2-morpholinoethyl)benzamide] |  |  | 6.08 | 9.15 | 6.54 | 8.13 | 77.3 |  |  |  | 
COc1c(NC(=O)Nc2ccc(Oc3ccnc(Nc4cc(C#N)cc(OCCCN5CCOCC5)c4)c3)c3ccccc23)cc(C(C)(C)C)cc1[S+](C)[O-] (stereo not shown) [79(e), 1-(5-tert-Butyl-2-methoxy-3-methylsulfinyl-phenyl)-3-[4-[[2-[3-cyano-5-(3-morpholinopropoxy)anilino]-4-pyridyl]oxy]-1-naphthyl]urea] | 7.09 | < 5.92 |  | 8.39 | 7.28 | 8.16 | 72.4 |  |  |  | 6.57
COc1cc(Nc2nccc(Oc3ccc(NC(=O)Nc4cc(C(C)(C)C)cc(P(C)(C)=O)c4OC)c4ccccc34)n2)cc(OC)c1 [Example 18, 1-(5-(tert-Butyl)-3-(dimethylphosphoryl)-2-methoxyphenyl)-3-(4-((2-((3,5-dimethoxyphenyl)-amino)pyrimidin-4-yl)oxy)naphthalen-1-yl)urea] | 7.82 | 7.16 | 5.88 | 8.68 | 7.71 | 8.09 |  | 6.5 | 35.5 | 39.0 | 6.66
COc1c(CNC(C)=O)cc(C(C)(C)C)cc1NC(=O)Nc1ccc(Oc2ccnc(Nc3cc(C#N)cc(OCCN4CCOCC4)c3)c2)c2ccccc12 [Example 50, N-(5-(tert-Butyl)-3-(3-(4-((2-((3-cyano-5-(2-morpholinoethoxy)phenyl)amino)pyridin-4-yl)oxy)naphthalen-1-yl)ureido)-2-methoxybenzyl)acetamide] | 7.40 | 6.10 | 5.49 | 8.92 | 7.52 | 9.05 | 57.7 |  |  |  | 
COc1cc(Nc2cc(Oc3ccc(NC(=O)Nc4cc(C(C)(C)C)cc(C(=O)NCCN5CCOCC5)c4OC)c4ccccc34)ccn2)cc(C(N)=O)c1 [Example 61, 5-(tert-Butyl)-3-(3-(4-((2-((3-carbamoyl-5-methoxyphenyl)amino)pyridin-4-yl)oxy)naphthalen-1-yl)ureido)-2-methoxy-N-(2-morpholinoethyl)benzamide] |  |  | 5.79 | 8.72 | 8.11 | 8.80 | 68.7 |  |  |  | 6.68
COc1cc(Nc2cc(Oc3ccc(NC(=O)Nc4cc(C(C)(C)C)cc(CC(N)=O)c4OC)c4ccccc34)ccn2)ccc1C(=O)NCCN1CCOCC1 [Example 70, 4-((4-((4-(3-(3-(2-Amino-2-oxoethyl)-5-(tert-butyl)-2-methoxyphenyl)ureido)naphthalen-1-yl)oxy)pyridin-2-yl)amino)-2-methoxy-N-(2-morpholinoethyl)benzamide] |  |  | 5.64 | 8.64 | 7.01 | 7.95 | 62.8 |  |  |  | 7.55
